Measurements from US10392366B2, “Azetidine compounds as GPR119 modulators for the treatment of diabetes, obesity, dyslipidemia and related disorders” (SANOFI, priority 2017, dated 2019).
pEC50: −log10 of the molar value.

Target: T1, human GPR119 (Homo sapiens, UniProt Q8TDV5)
T1 construct: expressed in transfected cells
T1 sequence (Q8TDV5 1-335): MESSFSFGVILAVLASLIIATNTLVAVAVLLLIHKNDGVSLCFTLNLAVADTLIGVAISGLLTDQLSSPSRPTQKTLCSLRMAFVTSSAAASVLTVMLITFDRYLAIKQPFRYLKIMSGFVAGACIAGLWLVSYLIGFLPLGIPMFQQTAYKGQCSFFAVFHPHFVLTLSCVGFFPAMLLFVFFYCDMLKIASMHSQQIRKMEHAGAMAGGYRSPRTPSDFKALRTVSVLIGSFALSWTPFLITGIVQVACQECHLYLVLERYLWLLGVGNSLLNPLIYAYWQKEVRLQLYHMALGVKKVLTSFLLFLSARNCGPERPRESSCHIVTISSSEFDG
Experiment: Functional cellular assay measuring GPR119-mediated cAMP release (HTRF) in HEK-293 cells stably expressing recombinant GPR119
Type: cell-based
Conditions: cell line expressing human GPR119, 30 minutes at room temperature
Description: Functional Cellular Assays Measuring GPR119-mediated cAMP Release
Compounds of the present disclosure, which are agonists of GPR119, were characterized by functional assays measuring the cAMP response of HEK-293 cell lines stably expressing recombinant GPR119 from man, mouse or rat, or by using the hamster cell line HIT-T15 expressing GPR119 endogenously. The cAMP content was determined using a kit based on homogenous time-resolved fluorescence (HTRF) from Cisbio Corp. (cat. no. 62AM4PEC). For preparation, cells were split into T175 culture flasks and grown to near confluency in medium (DMEM/10% FCS for HEK-293 cells, and F-12K medium/10% horse serum/2.5% FCS for HIT-T15 cells, respectively). Medium was then removed and cells washed with PBS lacking calcium and magnesium ions, followed by proteinase treatment with accutase (Sigma-Aldrich, cat. no. A6964). Detached cells were washed and resuspended in assay buffer (1×HBSS; 20 mM HEPES, 0.1% BSA, 2 mM IBMX) and cellular density determined. They were then diluted to 400000 cells/mL and 25 μL-aliquots dispensed to the wells of 96-well plates. For measurement, 25 μL of test compound in assay buffer was added and incubated for 30 minutes at room temperature. After addition of HTRF reagents diluted in lysis buffer, the plates were incubated for 1 hour, followed by measuring the fluorescence ratio at 665 vs. 620 nm. Potency of the agonists was quantified by determining the concentrations that caused 50% of the maximal response/activation (EC50). See Table 6 for exemplary data obtained using the cell line expressing human GPR119.

Molecule `O=C(O)C1CN(c2ncc(N3CC[C@@H](Oc4ccc(OCC(F)(F)F)nc4)C3=O)cn2)C1` [Compound 3-04] has a pEC50 of 5.04.
Molecule `CNC(=O)C1CN(c2ncc(N3CC[C@@H](Oc4ccc(Oc5ccc(F)cc5)nc4)C3=O)cn2)C1` [Compound 4-01] has a pEC50 of 5.69.
In the case of `CN(C)C(=O)C1CN(c2ncc(N3CC[C@@H](Oc4ccc(OCC(F)(F)F)nc4)C3=O)cn2)C1` [Compound 1-12], the pEC50 was 7.30.
With `C[S+]([O-])C1CN(c2ncc(N3CC[C@@H](Oc4ccc(C(=O)C5CC5)c(F)c4)C3=O)cn2)C1` (stereo partly drawn) [Compound 1-40] the pEC50 was 5.74.
In the case of `O=C1[C@H](Oc2ccc(OCC3CC3)nc2)CCN1c1cnc(N2CC(O)C2)c(F)c1` [Compound 1-02], the pEC50 was 6.69.
Work on `O=C(NCCO)C1CN(c2ncc(N3CC[C@@H](Oc4ccc(Oc5ccc(F)cc5)nc4)C3=O)cn2)C1` [Compound 4-12] yielded a pEC50 of 5.24.
With `O=C(O)C1CN(c2ccc(N3CC[C@@H](Oc4ccc(OCC5CC5)nc4)C3=O)cn2)C1` [Compound 3-03] the pEC50 was 5.22.
`CN(C)C(=O)C1CN(c2ncc(N3CC[C@@H](Oc4ccc(C(=O)C5CC(F)(F)C5)nc4)C3=O)cn2)C1` [Compound 2-11] gave a pEC50 of 6.33.
Molecule `O=C1[C@H](Oc2ccc(OCC(F)(F)F)nc2)CCN1c1cnc(N2CC(n3cn[nH]c3=O)C2)nc1` [Compound 5-03] has a pEC50 of 6.18.
Molecule `CS(=O)(=O)C1CN(c2ncc(N3CC[C@H](Oc4ccc(C(=O)C5CC5)cc4)C3=O)cn2)C1` [Compound 1-27] has a pEC50 of 5.66.
Molecule `CN(C)C(=O)C1CN(c2ncc(N3CC[C@@H](Oc4ccc(OCC5CC5)nc4)C3=O)cc2C#N)C1` [Compound 1-05] has a pEC50 of 7.21.
Work on `CN(CC(N)=O)C(=O)C1CN(c2ncc(N3CC[C@@H](Oc4ccc(OCC(F)(F)F)nc4)C3=O)cn2)C1` [Compound 4-18] yielded a pEC50 of 6.40.
For `CS(=O)(=O)C1CN(c2ncc(N3CCC(Cc4ccc(C(=O)C5CC5)cc4)C3=O)cn2)C1` (stereo not drawn) [Compound 1-32], the pEC50 was 6.71.
With `CN(C)C(=O)C1CN(c2ccc(N3CC[C@@H](Oc4ccc(OCC5CC5)nc4)C3=O)cn2)C1` [Compound 1-06] the pEC50 was 6.77.
`CCN(CC)C(=O)C1CN(c2ncc(N3CC[C@@H](Oc4ccc(Oc5ccc(F)cc5)nc4)C3=O)cn2)C1` [Compound 4-07] gave a pEC50 of 6.55.
In the case of `CN(C)C(=O)C1CN(c2ncc(N3CC(C)(C)C(Oc4ccc(OCC(F)(F)F)cc4)C3=O)cn2)C1` (stereo not drawn) [Compound 1-19], the pEC50 was 6.74.
`CN(C)C(=O)C1CN(c2ncc(N3CC[C@@H](Oc4ccc(OCC(F)(F)F)nc4)C3=O)cn2)C1` [Compound 1-31] was tested, and the pEC50 was 6.89.
`O=C1[C@H](Oc2ccc(OCC(F)(F)F)nc2)CCN1c1cnc(N2CC(N3CCCC3=O)C2)nc1` [Compound 1-34] showed a pEC50 of 6.43.
Work on `CS(=O)(=O)C1CN(c2ncc(N3CCC(Cc4ccc(OCC(F)(F)F)nc4)C3=O)cn2)C1` (single isomer, unassigned) [Compound 1-43] yielded a pEC50 of 6.94.
Molecule `CN(C)C(=O)C1CN(c2ncc(N3CC(C)(C)C(Oc4ccc(C(=O)C5CC5)cc4)C3=O)cn2)C1` (stereo not drawn) [Compound 1-48] has a pEC50 of 6.12.
With `O=C(C1CN(c2ncc(N3CC[C@@H](Oc4ccc(Oc5ccc(F)cc5)nc4)C3=O)cn2)C1)N1CC(O)C1` [Compound 4-11] the pEC50 was 6.04.
With `CS(=O)(=O)C1CN(c2ncc(N3CC[C@@H](Oc4ccc(OCC(F)(F)F)nc4)C3=O)cn2)C1` [Compound 1-16] the pEC50 was 7.24.
Molecule `CC(=O)NC1CN(c2ncc(N3CC[C@@H](Oc4ccc(OCC(F)(F)F)nc4)C3=O)cn2)C1` [Compound 4-24] has a pEC50 of 5.87.
`O=C(O)C1CN(c2ncc(N3CC[C@@H](Oc4ccc(OCC5CC5)nc4)C3=O)cn2)C1` [Compound 3-01] was tested, and the pEC50 was 5.31.
`C[S+]([O-])C1CN(c2ncc(N3CC[C@@H](Oc4ccc(OCC(F)(F)F)nc4)C3=O)cn2)C1` (stereo partly drawn) [Compound 1-15] gave a pEC50 of 6.61.
Molecule `CC(C)N(C)C(=O)C1CN(c2ncc(N3CC[C@@H](Oc4ccc(OCC(F)(F)F)nc4)C3=O)cn2)C1` [Compound 4-20] has a pEC50 of 7.09.
Work on `CN(C)C(=O)CC1CN(c2ncc(N3CC[C@@H](Oc4ccc(OCC(F)(F)F)nc4)C3=O)cn2)C1` [Compound 1-54] yielded a pEC50 of 5.78.
Molecule `C[S+]([O-])C1CN(c2ncc(N3CCC(Cc4ccc(OCC(F)(F)F)nc4)C3=O)cn2)C1` (single isomer, unassigned) [Compound 1-46] has a pEC50 of 6.39.
Molecule `NC(=O)CNC(=O)C1CN(c2ncc(N3CC[C@@H](Oc4ccc(Oc5ccc(F)cc5)nc4)C3=O)cn2)C1` [Compound 4-02] has a pEC50 of 5.17.
Work on `O=C(C1CN(c2ncc(N3CC[C@@H](Oc4ccc(OCC(F)(F)F)nc4)C3=O)cn2)C1)N1CCC1` [Compound 4-22] yielded a pEC50 of 6.94.
For `CNCCOC(=O)C1CN(c2ncc(N3CC[C@@H](Oc4ccc(OCC(F)(F)F)nc4)C3=O)cn2)C1` [Compound 4-16], the pEC50 was 6.67.
`C[S+]([O-])C1CN(c2ncc(N3CC[C@@H](Oc4ccc(Oc5ccc(F)cc5)nc4)C3=O)cn2)C1` (stereo partly drawn) [Compound 1-14] was tested, and the pEC50 was 5.68.
`COCC(=O)NC1CN(c2ncc(N3CC[C@@H](Oc4ccc(OCC(F)(F)F)nc4)C3=O)cn2)C1` [Compound 4-23] gave a pEC50 of 6.02.
In the case of `CN(C)C(=O)C1CN(c2ncc(N3CC[C@H](Oc4ccc(OCC(F)(F)F)nc4)C3=O)cn2)C1` [Compound 1-13], the pEC50 was 6.59.
Molecule `CN(C)C(=O)C1CN(c2ncc(N3CC[C@@H](Oc4ccc(C(=O)c5ccc(F)cc5)cc4)C3=O)cn2)C1` [Compound 2-02] has a pEC50 of 6.86.
In the case of `CCNC(=O)C1CN(c2ncc(N3CC[C@@H](Oc4ccc(OCC(F)(F)F)nc4)C3=O)cn2)C1` [Compound 4-13], the pEC50 was 6.61.
Work on `CN(C)C(=O)C1CN(c2ncc(N3CC(C)(C)C(Oc4ccc(C(=O)C5CC5)nc4)C3=O)cn2)C1` (stereo not drawn) [Compound 1-49] yielded a pEC50 of 5.87.
Molecule `CC(C)[S+]([O-])C1CN(c2ncc(N3CC[C@@H](Oc4ccc(OCC(F)(F)F)nc4)C3=O)cn2)C1` (stereo partly drawn) [Compound 1-51] has a pEC50 of 7.03.
`CN(C(=O)C1CN(c2ncc(N3CC[C@@H](Oc4ccc(OCC(F)(F)F)nc4)C3=O)cn2)C1)C1CC1` [Compound 4-19] showed a pEC50 of 7.07.
For `N#Cc1cc(N2CC[C@@H](Oc3ccc(Oc4ccc(F)cc4)nc3)C2=O)cnc1N1CC(O)C1` [Compound 1-03], the pEC50 was 6.59.
`CN(C)C(=O)C1CN(c2ncc(N3CC[C@@H](Oc4ccc(OCC5CC5)nc4)C3=O)cc2F)C1` [Compound 1-04] gave a pEC50 of 7.15.
In the case of `CN1CCC2(CN(c3ncc(N4CC[C@@H](Oc5ccc(OCC(F)(F)F)nc5)C4=O)cn3)C2)C1=O` [Compound 1-28], the pEC50 was 6.54.
In the case of `CN(C)C(=O)C1CN(c2ncc(N3CC[C@@H](Oc4ccc(C(=O)C5CC5)c(F)c4)C3=O)cn2)C1` [Compound 2-07], the pEC50 was 6.89.
`CS(=O)(=O)C1CN(c2ncc(N3CC[C@@H](Oc4ccc(Oc5ccc(F)cc5)nc4)C3=O)cn2)C1` [Compound 1-18] gave a pEC50 of 6.46.
For `CN(C)C(=O)C1CN(c2ncc(N3CC[C@@H](Oc4ccc(C(=O)C5CC5)nc4)C3=O)cn2)C1` [Compound 2-04], the pEC50 was 6.03.
With `CN(C)C(=O)C1CN(c2ncc(N3CC[C@@H](Oc4ccc(C(=O)CCC(F)(F)F)cc4)C3=O)cn2)C1` [Compound 2-09] the pEC50 was 6.91.
`Cc1cnc(-c2ccc(O[C@@H]3CCN(c4cnc(N5CC(C(=O)N(C)C)C5)nc4)C3=O)cn2)s1` [Compound 2-05] showed a pEC50 of 6.94.
`CN(C)C(=O)C1CN(c2ncc(N3CCC(Cc4ccc(OCC(F)(F)F)nc4)C3=O)cn2)C1` (single isomer, unassigned) [Compound 1-42] gave a pEC50 of 6.80.
`O=C1[C@H](Oc2ccc(OCC(F)(F)F)nc2)CCN1c1cnc(N2CC(O)C2)nc1` [Compound 1-22] gave a pEC50 of 6.06.
In the case of `CN(C)C(=O)C1CN(c2ncc(N3CC[C@@H](Oc4ccc(C(=O)C5CC(F)(F)C5)cc4)C3=O)cn2)C1` [Compound 2-08], the pEC50 was 6.65.
`CC(C)NC(=O)C1CN(c2ncc(N3CC[C@@H](Oc4ccc(Oc5ccc(F)cc5)nc4)C3=O)cn2)C1` [Compound 4-05] showed a pEC50 of 5.77.
For `O=C(C1CN(c2ncc(N3CC[C@@H](Oc4ccc(Oc5ccc(F)cc5)nc4)C3=O)cn2)C1)N1CCC(O)CC1` [Compound 4-06], the pEC50 was 6.18.
Molecule `CN(C)C(=O)C1CN(c2ncc(N3CCC(Cc4ccc(OCC(F)(F)F)nc4)C3=O)cn2)C1` (single isomer, unassigned) [Compound 1-45] has a pEC50 of 6.69.
`CC(C)S(=O)(=O)C1CN(c2ncc(N3CC[C@@H](Oc4ccc(OCC(F)(F)F)nc4)C3=O)cn2)C1` [Compound 1-37] was tested, and the pEC50 was 7.15.
`N#Cc1cc(N2CC[C@@H](Oc3ccc(OCC4CC4)nc3)C2=O)cnc1N1CC(O)C1` [Compound 1-01] gave a pEC50 of 7.24.
`C[S+]([O-])C1CN(c2ncc(N3CCC(Cc4ccc(OCC(F)(F)F)nc4)C3=O)cn2)C1` (single isomer, unassigned) [Compound 1-47] was tested, and the pEC50 was 5.79.
Molecule `CN(C)C(=O)C1CN(c2ncc(N3CC[C@@H](Oc4ccc(OCC(F)(F)F)nc4)C3=O)cc2C#N)C1` [Compound 1-09] has a pEC50 of 7.19.
